{
  "source": "patent US20090306094A1",
  "about": "(Bristol-Myers Squibb Company, priority 2006, published 2009)",
  "origin": "cited, not measured here",
  "key": {"[1]": {"test_system": "Crkl phosphorylation in primary CML patient cells", "settings": "correlated with dephosphorylation of BCR-ABL"}, "[2]": {"test_system": "leukemic versus normal hematopoietic cells"}, "[3]": {"test_system": "imatinib-resistant BCR-ABL mutants", "settings": "number of mutants / number tested"}, "[4]": {"test_system": "imatinib-resistant BCR-ABL mutants"}, "[5]": {"test_system": "cells expressing imatinib-resistant BCR-ABL kinases"}, "[6]": {"test_system": "imatinib-resistant BCR-ABL mutants", "remark": "listed apart in the source"}, "BCR-ABL": {"molecular_target": "T1, BCR-ABL (Homo sapiens, UniProt P00519)", "T1 construct": "BCR (N-terminal part of breakpoint cluster region protein, P11274); the other entry of the earlier key: BCR (P11274, Breakpoint cluster region protein)", "T1 sequence (P00519 242-493 limits assumed)": "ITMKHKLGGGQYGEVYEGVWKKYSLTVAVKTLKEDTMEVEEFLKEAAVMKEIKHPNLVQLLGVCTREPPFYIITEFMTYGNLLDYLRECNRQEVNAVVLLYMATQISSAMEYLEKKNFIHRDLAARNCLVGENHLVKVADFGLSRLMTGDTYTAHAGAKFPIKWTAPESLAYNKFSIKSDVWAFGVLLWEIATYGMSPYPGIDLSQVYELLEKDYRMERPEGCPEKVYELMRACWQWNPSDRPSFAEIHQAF"}, "[7]": {"test_system": "BCR-ABL expressing leukemic cells"}},
  "note": "Structures can show the parent of a compound that is named as a salt. Where two headings read alike, the source gives them in different places.",
  "data": [
    {"smiles": "Cc1ccc(NC(=O)c2ccc(CN3CCN(C)CC3)cc2)cc1Nc1nccc(-c2cccnc2)n1", "note": "[imatinib, imatinib mesylate]", "values": [
      {"measurement": "Crkl phosphorylation", "setting": "[1]", "result": "inhibited in a dose-dependent manner"},
      {"measurement": "estimated 2-year incidence of resistance", "setting": "CML patients; blastic phase", "result": 80, "unit": "%"},
      {"measurement": "estimated 2-year incidence of resistance", "setting": "CML patients; chronic phase post-interferon-α failure", "result": 10, "unit": "%"},
      {"measurement": "selectivity for leukemic versus normal hematopoietic cells", "setting": "[2]", "result": "highly selective"}
    ]},
    {"smiles": "Cc1cn(-c2cc(NC(=O)c3ccc(C)c(Nc4nccc(-c5cccnc5)n4)c3)cc(C(F)(F)F)c2)cn1", "note": "[AMN107]", "values": [
      {"measurement": "IC50", "setting": "wild-type BCR-ABL", "result": "[…]"},
      {"measurement": "imatinib-resistant BCR-ABL mutants against which significantly active", "setting": "[3]", "result": "32/33"}
    ]},
    {"smiles": "COc1cc(Nc2c(C#N)cnc3cc(OCCCN4CCN(C)CC4)c(OC)cc23)c(Cl)cc1Cl", "note": "[SKI-606]", "values": [
      {"measurement": "antiproliferative activity", "setting": "CML cell", "result": "potent antiproliferative activity"}
    ]},
    {"smiles": "CP(C)(=O)c1ccc(Nc2nc(C3CCCC3)nc3c2ncn3CCc2cccc(O)c2)cc1", "note": "[AP23464]", "values": [
      {"measurement": "inhibition of imatinib-resistant BCR-ABL mutants", "setting": "[4]", "result": "inhibit imatinib-resistant BCR-ABL mutants"}
    ]},
    {"smiles": "COCCNCCOc1ccc(-n2cc(-c3cccc(OC)c3)c3c(N)ncnc32)cc1", "note": "[CGP76030]", "values": [
      {"measurement": "growth and survival of cells", "setting": "[5]", "result": "inhibit the growth and survival"}
    ]},
    {"smiles": "Cc1ccc(NC(=O)c2ccc(CN3CC[C@H](N(C)C)C3)c(C(F)(F)F)c2)cc1Nc1nccc(-c2cncnc2)n1", "note": "[NS-187]", "values": [
      {"measurement": "inhibition of imatinib-resistant BCR-ABL mutants", "setting": "[6]", "result": "inhibit imatinib-resistant BCR-ABL mutants"}
    ]},
    {"smiles": "Cc1cc(Nc2ncc3cc(-c4c(Cl)cccc4Cl)c(=O)n(C)c3n2)ccc1F", "note": "[PD180970]", "values": [
      {"measurement": "inhibition of BCR-ABL", "setting": "BCR-ABL", "result": "inhibit BCR-ABL"},
      {"measurement": "apoptosis", "setting": "[7]", "result": "induce apoptosis"}
    ]}
  ]
}
